The nature of the series: in vitro. The note with it: human, hela cells, % viability.
Consider `C=CCc1cccc(Cl)c1OCCN1CCN(C)CC1` [CBK269734C], for which the viability at 28.5 h, 10 µM is 90.5%.

On to `O=C(CSc1nc2ccccc2c(=O)[nH]1)Nc1ccccc1O` [CBK269738], for which the viability at 28.5 h, 10 µM was found to be 104%.

Consider `COCc1nnc(SCC(=O)N2CCc3ccccc32)n1-c1ccccc1` [CBK269739], for which the viability at 28.5 h, 10 µM stood at 83.1%.

For `CCn1c(CN2CCOCC2)nnc1SCC(=O)Nc1cccc(Br)c1` [CBK269740], the viability at 28.5 h, 10 µM worked out at 85.6%.

`Cc1ccc(-c2nnc(COC(=O)c3cc(O)nc4ccccc34)o2)cc1` [CBK269741]: the viability at 28.5 h, 10 µM is 88.9%.

As to `Cc1cccc(C)c1NC(=O)CSc1nnc(C(O)c2ccccc2)n1C` (stereo not drawn) [CBK269742], the viability at 28.5 h, 10 µM worked out at 84.8%.

As for `CCN1C(=O)CC(N2CCN(c3cc(-c4ccc(OC)cc4)nc(C)n3)CC2)C1=O` (stereo not drawn) [CBK269744], the viability at 28.5 h, 10 µM was found to be 106%.

For `CS(=O)(=O)c1cccc(S(=O)(=O)N2CCN(Cc3ccccc3)CC2)c1` [CBK269747], the viability at 28.5 h, 10 µM is 88.9%.

`CC(C)(CO)NC(=O)c1cc(S(=O)(=O)N2CCOCC2)ccc1Cl` [CBK269748]: the viability at 28.5 h, 10 µM amounted to 94%.

`Cn1c(Cc2ccccc2)nnc1SCC(=O)Nc1ccc(N2CCOCC2)cc1` [CBK269750]: the viability at 28.5 h, 10 µM stood at 89.8%.

Regarding `C=CCn1c(NCc2ccco2)nc2ccccc21` [CBK269751], the viability at 28.5 h, 10 µM amounted to 87.9%.

With `Cc1ccccc1OC(C)C(=O)Nc1ccccc1C(=O)N1CCOCC1` (stereo not drawn) [CBK269753], the viability at 28.5 h, 10 µM came out at 103%.

Regarding `CCOc1ccc(S(=O)(=O)N2CCC(C(=O)O)CC2)cc1Cl` [CBK269759], the viability at 28.5 h, 10 µM came out at 97.4%.

On to `O=C(CCC1COc2ccccc2O1)N1CCN(Cc2ccccc2)CC1` (stereo not drawn) [CBK269767], for which the viability at 28.5 h, 10 µM worked out at 93.7%.

For the compound `CCOc1ccc(S(=O)(=O)N(CC)CC(=O)O)cc1C` [CBK269770], the viability at 28.5 h, 10 µM stood at 91.5%.

On to `CN1CCN(C(=O)c2ccccc2NC(=O)NC2CCCCC2)CC1` [CBK269771], for which the viability at 28.5 h, 10 µM came to 94%.

For `COc1ccc(-c2noc(CN(C(=O)Cc3ccc(C)cc3)C(C)C)n2)cc1` [CBK269774], the viability at 28.5 h, 10 µM turned out to be 89.6%.

On to `NC(=O)C1CCN(CC(=O)Nc2cc(C(F)(F)F)ccc2Cl)CC1` [CBK269776], for which the viability at 28.5 h, 10 µM stood at 100%.

`O=C(NC1CCCC1)c1ccc2c(c1)C(=O)N(CC1CCCO1)C2=O` (stereo not drawn) [CBK269777]: the viability at 28.5 h, 10 µM stood at 103%.

Consider `c1ccc(-c2nn3c(CN4CCOCC4)nnc3c3ccccc23)cc1` [CBK269779], for which the viability at 28.5 h, 10 µM was determined as 89%.

As for `CCC(C)Nc1nc(SCC(=O)OC)nc(N(C)C)n1` (stereo not drawn) [CBK269780], the viability at 28.5 h, 10 µM worked out at 95.2%.

Take `Cn1c(NC(=O)COc2ccccc2)nc2ccccc21` [CBK269783]: the viability at 28.5 h, 10 µM was 98.7%.

With `CCn1c(C)c(C)n2c3c(=O)n(CCN4CCOCC4)c(=O)n(C)c3nc12` [CBK269786], the viability at 28.5 h, 10 µM is 90.6%.

In the case of `O=C(Cc1ccc(Cl)cc1)NCCc1c[nH]c2ccccc12` [CBK269787], the viability at 28.5 h, 10 µM was 87%.

With `Cc1cc(CNC(=O)COc2cc(Cl)ccc2Cl)c2ccccc2n1` [CBK269788], the viability at 28.5 h, 10 µM amounted to 89.1%.

Turning to `N#Cc1ccccc1NC(=O)CSc1cnn[nH]1` [CBK269795], the viability at 28.5 h, 10 µM was found to be 89.3%.

`Cc1nn(CCCC(=O)O)c(C)c1I` [CBK269796]: the viability at 28.5 h, 10 µM was 91.3%.

Turning to `Cc1nn(C(C)CC(=O)NCc2ccco2)c(C)c1Br` (stereo not drawn) [CBK269797], the viability at 28.5 h, 10 µM was 89.5%.

Take `Cc1cc2c(SCc3cc(O)[nH]n3)ncnc2s1` [CBK269799]: the viability at 28.5 h, 10 µM stood at 93.9%.

For the compound `CCC(Sc1nc(C)cc(C)n1)C(=O)Nc1ccc(NC(C)=O)cc1` (stereo not drawn) [CBK269804], the viability at 28.5 h, 10 µM worked out at 89%.

Consider `O=C(Cc1cccs1)NCCc1c[nH]cn1` [CBK269805], for which the viability at 28.5 h, 10 µM is 93.2%.

`O=C(O)CC1C(=O)NCCN1Cc1ccc(-c2ccccc2)cc1` (stereo not drawn) [CBK269812]: the viability at 28.5 h, 10 µM was determined as 91%.

For the compound `COc1ccc(Nc2cn(C)nc2C(=O)O)cc1` [CBK269814], the viability at 28.5 h, 10 µM came out at 103%.

In the case of `CCOc1ccc(S(=O)(=O)N2CCC(C(=O)NCCO)CC2)cc1` [CBK269817], the viability at 28.5 h, 10 µM amounted to 88.6%.

As to `O=C(O)CCCn1cc(NC(=O)Cc2ccccc2)cn1` [CBK269821], the viability at 28.5 h, 10 µM was 93.9%.

Turning to `O=C(NCCc1c[nH]cn1)Nc1cccc(C(F)(F)F)c1` [CBK269822], the viability at 28.5 h, 10 µM amounted to 105%.

With `O=C(O)c1ccc(Nc2ncnc3c2oc2ccccc23)cc1` [CBK269825C], the viability at 28.5 h, 10 µM was found to be 92%.

In the case of `N#Cc1ccc(NC(=O)CCn2cnnn2)cc1` [CBK269832], the viability at 28.5 h, 10 µM stood at 91.4%.

For the compound `CC1CCN(S(=O)(=O)N2CCNCC2)CC1` [CBK269836C], the viability at 28.5 h, 10 µM came to 91.5%.

With `COc1ccccc1C(=O)NCCCc1nc2ccccc2[nH]1` [CBK269837], the viability at 28.5 h, 10 µM came to 87.1%.

Take `COc1ccc(S(=O)(=O)N2CCN(C(=O)c3ccco3)CC2)c2ccccc12` [CBK269839]: the viability at 28.5 h, 10 µM was 86.8%.

For `Cn1c(SCCC(=O)O)nnc1-c1ccc2c(c1)OCO2` [CBK269842], the viability at 28.5 h, 10 µM is 92.6%.

On to `Cc1cc(Oc2ccccc2)nc(Oc2ccc(=O)n(-c3ccccc3)n2)n1` [CBK269843], for which the viability at 28.5 h, 10 µM turned out to be 106%.

Take `COc1ccccc1/C=C/CN1CCNC(=O)C1CC(=O)O` (stereo not drawn) [CBK269845]: the viability at 28.5 h, 10 µM is 100%.

Turning to `COc1ccc(N2CCN(CC(O)COc3ccc4c(C)cc(=O)oc4c3)CC2)cc1` (stereo not drawn) [CBK269847], the viability at 28.5 h, 10 µM turned out to be 86.5%.

On to `Clc1ccc(OCc2ccccc2)c(CNCc2ccccn2)c1` [CBK269850C], for which the viability at 28.5 h, 10 µM was 91.2%.

For the compound `Cc1c(Cc2ccccc2)sc(NC(=O)c2cccnc2)c1C(N)=O` [CBK269851], the viability at 28.5 h, 10 µM is 101%.

`O=C(Nc1ccc(N2CCOCC2)c(Cl)c1)c1cccc(-n2cnnc2)c1` [CBK269853]: the viability at 28.5 h, 10 µM was 95.6%.

As to `CC(=O)N1CCN(c2ccc(NC(=O)CSc3ccc(C)cc3)cc2)CC1` [CBK269854], the viability at 28.5 h, 10 µM came to 95.6%.

As for `O=C(CCn1c(=O)oc2cc(Cl)ccc21)NCc1ccco1` [CBK269857], the viability at 28.5 h, 10 µM stood at 95%.

For the compound `N#Cc1c(SCC(=O)O)nc(-c2cccs2)c2c1CCCC2` [CBK269858], the viability at 28.5 h, 10 µM was found to be 103%.

For `COc1ccc(CNc2ccc(N3CCOCC3)c(C(=O)O)c2)c(OC)c1` [CBK269860], the viability at 28.5 h, 10 µM turned out to be 91.3%.

Consider `O=C(O)CCC(=O)Nc1ccccc1C(=O)N1CCCCCC1` [CBK269863], for which the viability at 28.5 h, 10 µM worked out at 86.3%.

In the case of `COCCNCc1cccc(OCc2ccccc2)c1` [CBK269864C], the viability at 28.5 h, 10 µM amounted to 87.9%.

For the compound `CCOc1ccc(S(=O)(=O)N(C)CC(=O)N2CCN(C)CC2)cc1Cl` [CBK269865], the viability at 28.5 h, 10 µM is 101%.

Take `COc1nc2ccccc2nc1CCC(=O)NCc1ccco1` [CBK269866]: the viability at 28.5 h, 10 µM was found to be 93.4%.

Take `CC(C)N(Cc1nc(-c2ccccc2)no1)C(=O)CCc1ccccc1` [CBK269867]: the viability at 28.5 h, 10 µM was determined as 109%.

For `COc1cc(S(=O)(=O)NCCc2ccccc2)c(OC)cc1C` [CBK269868], the viability at 28.5 h, 10 µM came out at 94.1%.

Take `O=c1[nH]c(CSc2nnc(COc3ccccc3)o2)nc2ccccc12` [CBK269869]: the viability at 28.5 h, 10 µM is 84.9%.

Turning to `COc1ccc(-c2nnn(C3CCNCC3)n2)cc1OC` [CBK269870C], the viability at 28.5 h, 10 µM was 85.3%.

For `CC1CN(Cc2nc3c(c(=O)[nH]c(=O)n3C)n2CCc2ccccc2)CC(C)O1` (stereo not drawn) [CBK269876], the viability at 28.5 h, 10 µM turned out to be 98.1%.

For `COc1cc(CNCc2ccccn2)ccc1OCc1cccc(Cl)c1` [CBK269877C], the viability at 28.5 h, 10 µM is 94.7%.

In the case of `O=C(O)COc1ccc(S(=O)(=O)N2CCc3ccccc32)cc1` [CBK269882], the viability at 28.5 h, 10 µM is 102%.

With `COc1ccc(-c2ccc(C#N)c(SCc3ccncc3)n2)cc1` [CBK269883], the viability at 28.5 h, 10 µM was found to be 102%.

On to `COCC(=O)NC(C)c1nc2ccccc2n1Cc1ccccc1C` (stereo not drawn) [CBK269885], for which the viability at 28.5 h, 10 µM came out at 88.1%.

As to `O=C(CSc1cnn[nH]1)Nc1cccc(C(F)(F)F)c1` [CBK269888], the viability at 28.5 h, 10 µM is 90.8%.

With `COc1cccc(C(=O)Nc2ccc(-c3noc(-c4ccncc4)n3)cc2)c1` [CBK269892], the viability at 28.5 h, 10 µM was 93.4%.

Take `Cc1[nH]c2ccccc2c1C(=O)C(=O)Nc1ccc(C#N)cc1` [CBK269896]: the viability at 28.5 h, 10 µM turned out to be 84.6%.

Regarding `COc1ccc(-c2noc(CNC(=O)Nc3ccccc3)n2)cc1OC` [CBK269900], the viability at 28.5 h, 10 µM came out at 88.3%.

In the case of `Ic1cnn(Cc2nc(-c3ccccc3)no2)c1` [CBK269901], the viability at 28.5 h, 10 µM amounted to 90.3%.

Consider `CCN1CCN(c2ccc(C(=O)OC)cc2NC(=O)c2ccccc2C)CC1` [CBK269902], for which the viability at 28.5 h, 10 µM was 92.9%.

Turning to `O=C(CSc1cnn[nH]1)Nc1ccccc1F` [CBK269903], the viability at 28.5 h, 10 µM is 101%.

As for `Cc1ccccc1-c1nc2ccc(NC(=O)CCC(=O)O)cc2o1` [CBK269904], the viability at 28.5 h, 10 µM was 93.4%.

With `COc1ccc(OCCn2c(C(C)O)nc3ccccc32)cc1` (stereo not drawn) [CBK269905], the viability at 28.5 h, 10 µM came to 93.2%.

For `NC1=Nc2nc3ccccc3n2C(c2ccc3c(c2)OCO3)N1` (stereo not drawn) [CBK269906], the viability at 28.5 h, 10 µM amounted to 85.7%.

Regarding `Cn1c(=O)[nH]c(=O)c2c1nc(CN1CCOCC1)n2CCc1ccccc1` [CBK269910], the viability at 28.5 h, 10 µM is 88%.

As to `CC(C(=O)NCCN1CCOCC1)N1c2cccc3cccc(c23)S1(=O)=O` (stereo not drawn) [CBK269911], the viability at 28.5 h, 10 µM amounted to 91.2%.

Take `Cc1cccnc1NC(=O)C1CCCN1S(=O)(=O)c1ccc(Cl)cc1` (stereo not drawn) [CBK269914]: the viability at 28.5 h, 10 µM is 83.2%.

Consider `O=C(NCCc1cccs1)Nc1ccccc1` [CBK269917], for which the viability at 28.5 h, 10 µM stood at 88.7%.

For `O=c1[nH]c(CN2CCN(c3ncccn3)CC2)nc2ccccc12` [CBK269918], the viability at 28.5 h, 10 µM was 98.3%.

For the compound `CC(=O)Nc1ccc(NC(=O)CC2SCCNC2=O)cc1` (stereo not drawn) [CBK269921], the viability at 28.5 h, 10 µM stood at 89.6%.

For `CCOC(=O)CC1C(=O)NCCN1C/C=C/c1ccccc1` (stereo not drawn) [CBK269922], the viability at 28.5 h, 10 µM worked out at 90.7%.

`COc1ccc(C(=O)Nc2ccccc2C(=O)N2CCOCC2)cc1Br` [CBK269923]: the viability at 28.5 h, 10 µM turned out to be 85.4%.

Take `CCOc1c(OC)cc(C#N)cc1C(=O)O` [CBK269925]: the viability at 28.5 h, 10 µM was 87.3%.
